In ChEMBL document CHEMBL5131425, “Microbial transformation and inhibitory effect assessment of uvaol derivates against LPS and HMGB1 induced NO production in RAW264.7 macrophages” (Bioorg Med Chem Lett, 2022) one finds IC50 and viability data, which are given here for eight compounds.

The term IC50 denotes the midpoint of a concentration-inhibition curve.

The test system of data set [1] is RAW264.7. In words: Anti-inflammatory activity in mouse RAW264.7 cells assessed as inhibition of LPS-induced NO production. It counts as functional, cell-based.
The test system of data set [2] is RAW264.7. In words: Anti-inflammatory activity in mouse RAW264.7 cells assessed as inhibition of HMGB1-induced NO production. It counts as functional, cell-based.
A short description of data set [3]: Cytotoxicity against mouse RAW264.7 cells assessed as cell viability at 50 uM. It counts as toxicity, cell-based. The conditions noted are these: read-out: Activity.

For `C[C@H]1[C@H](C)[C@@H](O)C[C@]2(CO)CC[C@]3(C)C(=CC[C@@H]4[C@@]5(C)CC[C@H](O)C(C)(C)[C@@H]5C[C@H](O)[C@]43C)[C@H]12`, the values for the half-inhibitory concentration (IC50) with RAW264.7 [1] and with RAW264.7 [2] were 2.22 µM and above 100 µM, respectively. In data set [3], the viability at 50 µM was 94.2%.

In the case of `CC1(C)[C@@H](OC(=O)CCC(=O)O)CC[C@]2(C)[C@H]3C(=O)C=C4[C@@H]5C[C@@](C)(C(=O)O)CC[C@]5(C)CC[C@@]4(C)[C@]3(C)CC[C@@H]12` [CARBENOXOLONE], the half-inhibitory concentration (IC50) in the data set on RAW264.7 [1] is 6.64 µM; in the data set on RAW264.7 [2], 7.62 µM. Besides, the viability at 50 µM in data set [3] was 88.5%.

On to `C[C@@H]1[C@H]2C3=CC[C@@H]4[C@@]5(C)CC[C@H](O)[C@@](C)(CO)[C@@H]5CC[C@@]4(C)[C@]3(C)CC[C@@]2(CO)[C@@H](O)C[C@H]1C(=O)O`, for which the IC50 came out at 29.9 µM with RAW264.7 [1] and 60.4 µM with RAW264.7 [2]. The viability at 50 µM in data set [3] came out at 118%.

Regarding `C[C@@H]1[C@H]2C3=CC[C@@H]4[C@@]5(C)CC[C@H](O)[C@](C)(CO)[C@@H]5CC[C@@]4(C)[C@]3(C)CC[C@@]2(CO)[C@@H](O)C[C@H]1C(=O)O`, the half-maximal inhibitory concentration (IC50) with RAW264.7 [1] is above 100 µM; with RAW264.7 [2], 100 µM. Also, the viability at 50 µM in data set [3] stood at 117%.

As for `C[C@H]1[C@H](C)CC[C@]2(CO)CC[C@]3(C)C(=CC[C@@H]4[C@@]5(C)CC[C@H](O)C(C)(C)[C@@H]5CC[C@]43C)[C@H]12` [UVAOL], the 50% inhibitory concentration (IC50) in the data set with RAW264.7 [1] and in the data set on RAW264.7 [2] was above 100 µM in each case. Besides, in data set [3], the viability at 50 µM turned out to be 103%.

In the case of `C[C@H]1[C@H](C)[C@@H](O)C[C@@]23CC[C@@]4(C)[C@@]5(C)[C@H](C=C[C@]4(OC2)[C@H]13)[C@@]1(C)CC[C@H](O)C(C)(C)[C@@H]1C[C@@H]5O`, the IC50 turned out to be 4.8 µM in the data set with RAW264.7 [1] and 47.2 µM in the data set on RAW264.7 [2]. Also, the viability at 50 µM in data set [3] was determined as 94.2%.

Turning to `C[C@H]1[C@H](C(=O)O)[C@@H](O)C[C@]2(CO)CC[C@]3(C)C(=CC[C@@H]4[C@@]5(C)CC[C@H](O)[C@](C)(CO)[C@@H]5CC[C@]43C)[C@H]12`, the values for the IC50 with RAW264.7 [1] and in the data set on RAW264.7 [2] were 0.55 µM and 91.6 µM, respectively. Further, the viability at 50 µM in data set [3] was determined as 112%.

`C[C@H]1[C@H](C(=O)O)[C@@H](O)C[C@]2(CO)CC[C@]3(C)C(=CC[C@@H]4[C@@]5(C)CC[C@H](O)[C@@](C)(CO)[C@@H]5CC[C@]43C)[C@H]12`: the IC50 in the data set on RAW264.7 [1] and in the data set with RAW264.7 [2] was above 100 µM throughout. In addition, in data set [3], the viability at 50 µM stood at 124%.
